Nine molecules from PubChem BioAssay (NCI) can be followed below.

Some test systems named below: TK-10 renal; HCC-2998 colon; MALME-3M melanoma; IGROV1 ovarian; UO-31 renal; OVCAR-4 ovarian; SN12C renal; HCT-116 colon; CAKI-1 renal; A498 renal.
Holding throughout (assay): NCI-60 cell line screen, 48 h

“And” between values parts separate entries of the source, which are not always exact repeats. Identical values can stand only once.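 48-hour exposure; five concentrations; linearly interpolated endpoints. Here, GI50 denotes the concentration required for 50% inhibition of growth. TGI: concentration producing complete growth inhibition.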

On to `Cc1ccc(NC(=O)c2ccnc(N3CCCC3)c2)cc1-c1ccc(C(=O)NCC2CC2)cc1`, for which the GI50 with TK-10 renal, in the test with HCC-2998 colon, in the test with MALME-3M melanoma, in the test on IGROV1 ovarian, in the test on UO-31 renal and in the test with OVCAR-4 ovarian was over 25 µM each time. The GI50 in the test with SN12C renal is over 25 µM; with HCT-116 colon, over 23.8 µM; with CAKI-1 renal it was over 25 µM; with A498 renal, over 25 µM. The TGI in the test with TK-10 renal, in the test on HCC-2998 colon, in the test with MALME-3M melanoma, in the test on IGROV1 ovarian, in the test on UO-31 renal and with OVCAR-4 ovarian was over 25 µM throughout. The TGI in the test with SN12C renal, with HCT-116 colon, in the test on CAKI-1 renal and with A498 renal was over 25 µM throughout.
Turning to `NC(=O)Oc1cc(OC(N)=O)cc(N(CCCl)CCCl)c1`, the GI50 in the test with TK-10 renal is 19.3 µM; in the test with HCC-2998 colon, 16.9 µM; in the test on MALME-3M melanoma, 5.73 µM; with IGROV1 ovarian it was 6.71 µM; with UO-31 renal it was 2.57 µM; with OVCAR-4 ovarian, 14.8 µM. The GI50 is 2.41 µM in the test with SN12C renal, 7.77 µM in the test with HCT-116 colon, 2.97 µM in the test with CAKI-1 renal and 12.4 µM with A498 renal. Moreover, the TGI was determined as 55.9 µM in the test on TK-10 renal; 61.9 µM in the test on HCC-2998 colon; 23.3 µM with MALME-3M melanoma; 49 µM in the test with IGROV1 ovarian; 15.9 µM in the test on UO-31 renal; 79.3 µM in the test with OVCAR-4 ovarian. In addition, the TGI with SN12C renal was over 100 µM; in the test with HCT-116 colon it was over 100 µM; in the test on CAKI-1 renal, 80.4 µM; with A498 renal, 29.3 µM.
As to `O=C1C=CC2(C=C1)CCN=c1c(O)c3c(c(O)c12)=NC=N3`, the GI50 in the test on TK-10 renal is 22.7 µM and > 100 µM; in the test with HCC-2998 colon, 18.5 µM and > 100 µM; in the test with UO-31 renal it was 14.5 µM and > 100 µM; with OVCAR-4 ovarian, 15.9 µM and > 100 µM; in the test with SN12C renal it was 14.5 µM and > 100 µM; with A498 renal it was 19.2 µM and > 100 µM. In addition, the TGI was 38.4 µM and > 100 µM in the test with TK-10 renal; 32.6 µM and > 100 µM in the test on HCC-2998 colon; 4.42 µM in the test with MALME-3M melanoma; 31 µM in the test with IGROV1 ovarian; 30.5 µM and > 100 µM with UO-31 renal; 29.7 µM and > 100 µM in the test on OVCAR-4 ovarian. Moreover, the TGI was 29.4 µM and > 100 µM in the test with SN12C renal; 22.5 µM and > 100 µM with HCT-116 colon; 27.5 µM and > 100 µM with CAKI-1 renal; 33.5 µM and > 100 µM in the test with A498 renal.
On to `O=C(O)/C(Cl)=C(\Cl)C(=O)Nc1ccccc1`, for which the TGI with TK-10 renal, in the test on HCC-2998 colon, in the test on MALME-3M melanoma, with IGROV1 ovarian, with UO-31 renal and with OVCAR-4 ovarian was over 100 µM in each case. Besides, the TGI in the test on SN12C renal, in the test with HCT-116 colon, with CAKI-1 renal and in the test on A498 renal was over 100 µM throughout.
As to `O=C(/C=C\Sc1nccc(C(F)(F)F)n1)c1ccc(Br)cc1`, the GI50 with TK-10 renal was 26.4 µM; with HCC-2998 colon, 12.5 µM; with MALME-3M melanoma it was 16.9 µM; in the test on IGROV1 ovarian it was 16.8 µM; in the test on UO-31 renal, 18.7 µM; with OVCAR-4 ovarian, 20.4 µM. The GI50 in the test on SN12C renal was 18.8 µM; in the test on HCT-116 colon it was 12.8 µM; with CAKI-1 renal it was 18 µM; in the test with A498 renal, over 100 µM. The TGI in the test on TK-10 renal is 59.6 µM; in the test with HCC-2998 colon it was 32.6 µM; in the test on MALME-3M melanoma it was 43.9 µM; in the test on IGROV1 ovarian, 35.8 µM; in the test on UO-31 renal, 34 µM; in the test with OVCAR-4 ovarian it was 45.8 µM. The TGI is 43.1 µM in the test with SN12C renal, 25.5 µM with HCT-116 colon, 35.1 µM with CAKI-1 renal and over 100 µM in the test on A498 renal.
On to `Cn1cc(C2=C(c3c4n(c5ccccc35)CCC(CN)CC4)C(=O)NC2=O)c2ccccc21` (centres undefined), for which the GI50 was 3.31 µM in the test on TK-10 renal; 4.43 µM in the test on HCC-2998 colon; 3.8 µM with MALME-3M melanoma; 3.98 µM with IGROV1 ovarian; 4.07 µM with UO-31 renal; 1.96 µM in the test with OVCAR-4 ovarian. For the same molecule, the GI50 is 3.87 µM in the test on SN12C renal, 3.51 µM in the test on HCT-116 colon, 4.75 µM with CAKI-1 renal and 3.96 µM in the test with A498 renal. For the same molecule, the TGI in the test with TK-10 renal came to 6.95 µM; in the test on HCC-2998 colon, 8.46 µM; with MALME-3M melanoma it was 7.88 µM; in the test with IGROV1 ovarian, 8.75 µM; in the test with UO-31 renal it was 7.91 µM; with OVCAR-4 ovarian, 7.51 µM. In addition, the TGI in the test with SN12C renal is 8.14 µM; in the test with HCT-116 colon it was 7.26 µM; with CAKI-1 renal it was 10.7 µM; in the test on A498 renal it was 7.55 µM.
For `O=C1/C(=C/c2ccc(Cl)cc2)CN(C(=O)C(Cl)Cl)C/C1=C\c1ccc(Cl)cc1`, the GI50 with TK-10 renal was 0.374 µM; with HCC-2998 colon, 0.182 µM; with MALME-3M melanoma, 0.23 µM; in the test on IGROV1 ovarian, 0.178 µM; in the test on UO-31 renal it was 0.156 µM; with OVCAR-4 ovarian, 0.283 µM. Also, the GI50 in the test with SN12C renal was 0.203 µM; in the test with HCT-116 colon it was 0.0336 µM; in the test on CAKI-1 renal it was 0.264 µM; in the test on A498 renal it was 0.211 µM. In addition, the TGI is 1.52 µM with TK-10 renal; 0.345 µM in the test on HCC-2998 colon; 0.759 µM in the test on MALME-3M melanoma; 0.422 µM in the test on IGROV1 ovarian; 0.3 µM with UO-31 renal; 1.32 µM in the test on OVCAR-4 ovarian. The TGI was determined as 0.541 µM in the test with SN12C renal, 0.13 µM in the test with HCT-116 colon, 0.865 µM in the test on CAKI-1 renal and 0.771 µM in the test on A498 renal.
Regarding `O=C(O)CC1(C(=O)O)CCCCC1`, the TGI with TK-10 renal, in the test with HCC-2998 colon, with MALME-3M melanoma, in the test with IGROV1 ovarian, in the test on UO-31 renal and with OVCAR-4 ovarian was over 100 µM in each case. Also, the TGI in the test on SN12C renal, in the test with HCT-116 colon, with CAKI-1 renal and in the test on A498 renal was over 100 µM in each case.
In the case of `Cc1cc(C)nc(SC2=C(Nc3cccc(Cl)c3)C(=O)N(Cc3ccccc3)C2=O)n1`, the GI50 with TK-10 renal, in the test with HCC-2998 colon, in the test with MALME-3M melanoma, with IGROV1 ovarian, in the test with UO-31 renal and in the test on OVCAR-4 ovarian was over 170 µM each time. Further, the GI50 in the test on HCT-116 colon, in the test with CAKI-1 renal and in the test on A498 renal was over 170 µM throughout. The TGI with TK-10 renal, in the test on HCC-2998 colon, in the test on MALME-3M melanoma, in the test on IGROV1 ovarian, in the test with UO-31 renal and in the test with OVCAR-4 ovarian was over 170 µM in each case. In addition, the TGI with HCT-116 colon, with CAKI-1 renal and in the test with A498 renal was over 170 µM in each case.
